From patent US20180289678A1, “PHARMACEUTICAL COMPOSITION, PHARMACEUTICAL DOSAGE FORM, PROCESS FOR THEIR PREPARATION, METHODS FOR TREATING AND USES THEREOF” (Boehringer Ingelheim International GmbH, priority 2009, published 2018)

Experiment: Particle size distribution measurement by laser diffraction
Type: physicochemical
Settings: particle size distribution by volume
Excerpt: The value X90 refers to the 90% value of the volume distribution measured using a laser diffractometer. In other words, for the purposes of the present invention, the X90 value denotes the particle size below which 90% of the quantity of particles is found based on the volume distribution. Analogously the value X50 refers to the 50% value (median) of the volume distribution measured using a laser diffractometer. In other words, for the purposes of the present invention, the X50 value denotes the particle size below which 50% of the quantity of particles is found based on the volume distribution. Analogously the value X10 refers to the 10% value of the volume distribution measured using a laser diffractometer. In other words, for the purposes of the present invention, the X10 value denotes the particle size below which 10% of the quantity of particles is found based on the volume distribution.
Preferably all X90, X50, X10 values hereinbefore and hereinafter are by volume and determined by laser-diffraction method, in particular low angle laser light scattering, i.e. Fraunhofer diffraction. A preferred test is described in the experimental section. The laser diffraction method is sensitive to the volume of a particle and provides a volume-average particle size, which is equivalent to the weight-average particle size if the density is constant.
3. Particle Size Distribution Measurement by Laser Diffraction
Particle size distribution measurement is performed for example via light scattering or laser diffraction technique. To determine the particle size the powder is fed into a laser diffraction spectrometer for example by means of a dispersing unit. The test method is described below in detail:
Equipment: Laser Diffraction Spectrometer Sympatec HELOS Particle Sizer.
Sample Dispersing Unit: Dry disperser RODOS/M
Feed Velocity: 60.00 mm/s
Primary pressure: 2.00 bar
Injector depression: maximize (mbar)2
Reference Measurement: 10 seconds
Trigger Conditions: Start 0.0 seconds after optical concentration 1% valid always
Stop after 5.0 seconds optical concentration 1% or after 30 seconds real time
Optical Concentration: Approximately range 3-12%
Sample Size: Approximately 100 mg
Number of measurements: 2 (duplicate)
The instrument is set up according to the manufacturer's recommendation and using the manufacturer provided software. The sample container is thoroughly mixed and tumbled prior to removing a portion of the sample to ensure that a representative sample is tested. Duplicate samples are prepared by using a spatula to transfer approximately 100 mg of a sample into the ASPIROS glass vials and cap the vials. The capped cials are placed into the feeder.

Row | X10 [μm] | X50 [μm] | X90 [μm] | SMILES
1 | 1.7 | 12.1 | 25.9 | OC[C@H]1O[C@@H](c2ccc(Cl)c(Cc3ccc(O[C@H]4CCOC4)cc3)c2)[C@H](O)[C@@H](O)[C@@H]1O [Active substance Batch 2]
2 | 1.8 | 18.9 | 45.3 | OC[C@H]1O[C@@H](c2ccc(Cl)c(Cc3ccc(O[C@H]4CCOC4)cc3)c2)[C@H](O)[C@@H](O)[C@@H]1O [Active substance Batch 1]
